Tests used:
Assay type in all cases: in vivo
[1] = tested on: Aster Leafhopper [Macrosteles fascifrens (Stal)]; assay: Aster leafhopper insecticidal test; details: adults/nymphs, percent in solution; 48 hours
Protocol: The compounds in Tables 1 and 2 above were tested for insecticidal activity using the following testing procedures. LC50 values, based on the results of these tests and calculated according to dosage-mortality curves, are expressed in Table 3.
Aster Leafhopper [Macrosteles fascifrens (Stal)]
Oat seedlings (Avena sp) were grown in a commercial potting soil in cups. When the plants were approximately 10 cm tall they were thinned to three plants per cup and dipped for 2-3 seconds in 50-50 acetone-water solutions of the test compounds. When the plants had dried, a clear plastic tube was placed over them and the bottom end pressed into the cup. Ten aster leafhopper adults/nymphs were then placed in each tube and the tops of the tubes covered with white organdy cloth. Mortality counts were made after 48 hours. Test concentrations ranged from 0.05% down to that at which 50% mortality occurred. The LC50 values are expressed below in Table 3 under the heading "LH" in terms of the percent of the test compound in the solution.

[2] = tested on: Cabbage Looper [Trichoplusia ni (Hubner)]; assay: Cabbage looper insecticidal test; details: second-instar larvae, percent in solution; 3-5 days
Method in brief: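 Squash cotyledons dipped 2-3 s in compound in 50-50 acetone-water, dried, then infested with 5 second-instar larvae and held at high humidity. Mortality scored after 3-5 days at concentrations from 0.1% downward. LC50 from dosage-mortality curves, expressed as percent compound in solution.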

[3] = tested on: Tobacco Budworm [Heliothis virescens (Fabricius)] eggs; assay: Tobacco budworm egg test; details: 2-day old eggs, percent in solution
Method in brief: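 Paper-towel patches of 2-day-old eggs dipped in acetone solutions of compound (0.1% downward), held on larval rearing medium at 78° F. Mortality scored once all control eggs had hatched and larvae were feeding; LC50 from dosage-mortality curves, expressed as percent compound in solution.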

[4] = tested on: Housefly [Musca domestica]; assay: Housefly insecticidal test; details: μg per 25 female flies; mortality after 48 hours
Method in brief: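 LC50 (μg compound per 25 female flies) derives from dosage-mortality curves of 48 h kill. Flies, females 1-2 days old, were held 25 per cage over a dish coated with dried acetone deposit, starting at 100 μg per cage and descending.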

[5] = tested on: Maize weevil [Sitophilus Zeamais (Motschulsky)]; assay: Maize weevil insecticidal test; details: adult weevils, percent in solution; 48 hours
Method in brief: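 LC50, in percent of compound in solution, was derived from dosage-mortality curves after 48 h at about 25 °C. Ten adult weevils per container fed on four corn seeds briefly immersed in acetone:water (50:50) solutions of up to 0.01% and dried.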

SMILES	LC50, LH [1]	LC50, CL [2]	LC50, TBW, E (TBW-E) [3]	LC50, HF [4]	LC50, MW [5]
CC(C)C(=Nc1c(Cl)cc([N+](=O)[O-])cc1Cl)OCc1cccc(Oc2ccccc2)c1 [Compound 92]	> 0.05%	0.015%	> 0.1%	> 100 µg	
Clc1ccc(N=C(OCc2cccc(Oc3ccccc3)c2)C(Cl)Cl)c2ccccc12 [Compound 98]	> 0.05%	0.016%	0.1%	> 100 µg	
Cc1c(Cl)cc(N=C(OCc2cccc(Oc3ccccc3)c2)C(C)C)cc1Cl [Compound 101]	0.0008%	0.0045%	> 0.1%	81 µg	
CCOC(=O)c1cc(N=C(OCc2cccc(Oc3ccccc3)c2)C(C)C)ccc1Cl [Compound 102]	> 0.05%	0.075%	> 0.1%	> 100 µg	
CC(C)(Cl)C(=Nc1ccc(C#N)c(Cl)c1)OCc1cccc(Oc2ccccc2)c1 [Compound 108]	> 0.01%	0.002%	> 0.1%	44 µg	
CC(C)C(=Nc1c(F)cc(F)cc1Br)OCc1cccc(Oc2ccccc2)c1 [Compound 129]	0.01%	0.005%	> 0.1%	> 100 µg	
CC(C)C(=Nc1ccc(Br)cc1)OCc1cccc(Oc2ccccc2)c1 [Compound 131]	0.005%	0.0045%	> 0.1%	17 µg	
CC(C)(C)C(=Nc1ccc(Br)cc1)OCc1cccc(Oc2ccccc2)c1 [Compound 135]	> 0.05%	0.004%	> 0.1%	> 100 µg	
CC(C)C(=Nc1ccc(I)cc1)OCc1cccc(Oc2ccccc2)c1 [Compound 137]	0.008%	0.003%	0.04%	18 µg	
CCc1cccc(N=C(OCc2cccc(Oc3ccccc3)c2)C(C)C)c1 [Compound 154]	> 0.05%	0.004%	0.1%	25 µg	
CCc1ccc(N=C(OCc2cccc(Oc3ccc(F)cc3)c2)C(C)C)cc1 [Compound 159]	0.0025%	0.001%	0.08%	25 µg	
CCc1ccc(N=C(OCc2cccc(Oc3ccccc3)c2)C(C)C)cc1 [Compound 161]	0.002%	0.0014%	0.07%	15 µg	
CCc1cccc(N=C(OCc2cccc(Oc3ccccc3)c2)C(C)(C)C)c1 [Compound 162]	> 0.05%	0.035%	> 0.1%	> 100 µg	
CC(C)C(=Nc1ccc2c(c1)CCC2)OCc1cccc(Oc2ccccc2)c1 [Compound 187]	0.0025%	0.0025%	> 0.1%	15 µg	
CCCC(=Nc1ccc2c(c1)OCO2)OCc1cccc(Oc2ccccc2)c1 [Compound 188]	> 0.05%	0.002%	> 0.1%	12 µg	
Cc1ccc(Oc2cccc(COC(=Nc3ccc(F)c(Cl)c3)C(C)C)c2)cc1 [Compound 225]	> 0.05%	0.0025%	> 0.1%	> 100 µg	
CC(C)C(=Nc1ccc(C(C)C)cc1)OCc1cccc(Oc2ccc(F)cc2)c1 [Compound 228]	> 0.05%	0.0025%	> 0.1%	> 100 µg	
CC(C)C(=Nc1ccc2c(c1)OC(C)(C)O2)OCc1ccc(F)c(Oc2ccccc2)c1 [Compound 242]	> 0.05%	0.00025%	> 0.1%	< 100 µg	
CSc1ccc(Oc2cccc(COC(=Nc3ccc(F)cc3)C(C)C)c2)cc1 [Compound 257]	> 0.05%	0.008%	> 0.1%	> 100 µg	
Fc1ccc(Oc2cccc(COC(=Nc3ccc(F)c(Cl)c3)C(F)(F)C(F)(F)F)c2)cc1 [Compound 258]	> 0.05%	0.003%	> 0.1%	> 100 µg	
CC(C)C(=Nc1cc(F)ccc1Cl)OCc1ccc(F)c(Oc2ccc(F)cc2)c1 [Compound 303]	0.0005%	0.0015%	> 0.1%	> 100 µg	
CC(C)C(=Nc1ccc(Cl)cc1)OC(C)c1cccc(Oc2ccccc2)c1 (centres unmarked) [Compound 457]	> 0.05%	0.009%	> 0.05%	> 100 µg	
CC(C)C(=Nc1ccc2c(c1)OCO2)OCc1cccc(Oc2ccc(F)cc2)n1 [Compound 465]	0.0025%	0.0017%	0.027%	8 µg	
COCc1c(F)c(F)c(COC(=Nc2ccc(F)c(Cl)c2F)C(C)C)c(F)c1F [Compound 522]	0.05%	> 0.1%	> 0.1%		> 0.01%
CC(C)C(=Nc1ccc(F)c(Cl)c1)OCc1cccc(Cc2ccccc2)c1 [Compound 541]	> 0.05%	0.001%		< 100 µg	> 0.01%
CC(C)C(=Nc1ccc(C(F)(F)F)cc1)OCc1cccc(Cc2ccccc2)c1 [Compound 543]	< 0.05%	0.0008%		< 100 µg	> 0.01%

— patent US5070210A, “Novel ketenimines as intermediates for insecticides” (ICI Americas Inc., priority 1990, dated 1991)
